In patent US9670548B2, “Methods of diagnosing colorectal cancer by detecting FADA expression” (priority 2013, dated 2017):

B1: GST-EC5 fusion protein: purified GST fusion protein carrying the EC5 domain of E-cadherin (protein)
chain: IPEPRTIFFCERNPKPQVINIIDADLPPNTSPFTAELTHGASANWTIQYNDPTQESIILKPKMALEVGDYKINLKLMDNQNKDQVTTLEVSVCDCEGAAGVCRK
modifications: left off: a dimerising Fc or GST
notes: purified GST fusion protein carrying the EC5 domain of E-cadherin

Columns and labels:
[1] = tested on: E-cadherin-mediated cellular signaling in HCT116; assay: Subcellular fractions of HCT116, Western blot; type: cell-based, human; details: 50 μM inhibitor pre-incubated 1 hour, FadAc
From the text: The following antibodies were used: anti-FadA monoclonal antibody (mAb) 5G11-3G8 (Xu et al., 2007), mAb anti-CDH1 (Abcam or Cell Signaling Tech), polyclonal anti-phospho-CDH1 (ECM Biosciences), mAb anti-GAPDH (Invitrogen), mAb anti-β-catenin (R&D systems), polyclonal anti-phospho-β-catenin (Cell Signaling Tech), mAb anti-LEF/TCF1 (Invitrogen), mAb anti-NFkB (Invitrogen), mAb anti-Myc (Cell Signaling Tech), mAb anti-cyclin D1 (Cell Signaling Tech), mAb anti-EGFR (Cell Signaling Tech), mAb anti-GAPDH (Cell Signaling Tech), mAb anti-PCNA (Cell Signaling Tech), polyclonal goat-anti-mouse or goat-anti-rabbit secondary antibody conjugated with horseradish peroxidase (HRP) (Pierce Biotechnology). Peptides were synthesized by Neo Group, Inc (Cambridge, Mass.). Western blot analyses were performed as previously described.
Cells were incubated with 1 mg/ml of FadAc or mFadA followed by the extraction of subcellular fractions. When indicated, 50 μM of the corresponding protein tyrosine kinase inhibitor (Genistein) and clathrin inhibitor (Pitstop2) were pre-incubated with cells for 1 hour. Membrane, cytosolic and nuclei fractions were prepared using the Compartmental Protein Extraction kit (Millipore) according to the manufacturer's instructions.

HCT116 [2] = assay: Real-time quantitative PCR (qPCR) of HCT116; type: cell-based, human; details: for inhibition of activation of inflammatory genes, mRNA / inhibition of activation of tumor growth genes (Wnt, oncogenes), mRNA: FadAc, 2 hrs incubation
Procedure: (§1) Total RNA was extracted from CRC cells, xenografts, or clinical specimens. cDNA synthesis and RT-PCR were performed as previously described, using primers listed in Table 1. Data were analyzed by the ΔΔCt method and normalized to the GAPDH or Fn-specific 16S rRNA. To quantify the fadA gene copies, plasmid carrying fadA was serially diluted to 10^2-10^8 fadA copies/μl and used to generate standard curves for Ct values. The fadA gene copies in the clinical samples were calculated based on the standard curves. Each experiment was performed in triplicates and repeated at least three times.

Fn [3] = assay: Tissue culture attachment assay, Fn on HCT116; type: cell-based, Fusobacterium nucleatum; details: for inhibition of Fn attachment of HCT116: MOI 50, 1 hr
Procedure: (§2) Cells were seeded in 24-well or 96-well plates at 8×10^4 cells or 2.5×10^4 cells per well in the growth medium and grown to 100% confluent. Bacteria were added to the cells at a multiplicity of infection (MOI) of 50. Following 1 hr incubation at 37° C. in 5% CO2, the monolayers were washed 3 times with D-PBS, pH 7.1, supplemented with Ca^2+ and Mg^2+. Cells were lyzed with water for 20 min at 37° C. Serial dilutions of the lysates were plated onto blood agar plates to enumerate the total cell-associated bacteria. For invasion assays, the bacteria were incubated with the monolayers at 37° C. for 4 hrs, followed by washes with PBS. Fresh media containing 300 μg/ml gentamicin and 200 μg/ml metronidazole were added to the monolayers and incubated for an additional hour to kill extracellular bacteria. The cells were then washed and lyzed with water as described above. The levels of attachment and invasion were expressed as the percentage of bacteria recovered following cell lysis relative to the total number of bacteria initially added. Each experiment was performed in triplicates and repeated at least twice.

Fn [4] = assay: Tissue culture invasion assay, Fn into HCT116; type: cell-based, Fusobacterium nucleatum; details: for inhibition of Fn invasion of HCT116: MOI 50, 4 hrs
Procedure: as §2

HCT116 [5] = assay: Cell proliferation assay, HCT116; type: cell-based, human; details: bacteria at MOI 1000:1
Procedure: (§3) CRC cells were seeded in 24-well plates at 1×10^4 cells per well in the growth medium. Cells were untreated, or incubated with FadAc or peptides at indicated concentration, or with bacteria at a multiplicity of infection (MOI) of 1000:1. Cell numbers were counted at 24-hour intervals using a hemocytometer. Each experiment was performed in triplicates and repeated at least twice.

[6] = tested on: RKO cells transfected with CDH1; assay: Cell proliferation assay, RKO cells transfected with CDH1; type: cell-based, human; details: bacteria at MOI 1000:1
Procedure: CDH1 transfections were performed as previously described. siRNA assays were performed using the FlexiTube siRNA anti-CDH1 or anti-beta-catenin reagent and All Stars FlexiTube Control siRNA from Qiagen (Valencia, Calif.) according the manufacturer's instructions.
as §3

[7] = tested on: Fusobacterium nucleatum (Fn); assay: Fn attachment of endothelial cells; type: cell-based; details: FIG. 8
Procedure: as §2

[8] = tested on: Fusobacterium nucleatum (Fn); assay: Fn invasion of endothelial cells; type: cell-based; details: FIG. 8
Procedure: as §2

HCT116 xenografts [9] = assay: HCT116 xenograft tumor growth in nude mice; type: in vivo; details: 0.01 μmol peptide with FadAc
Procedure: (§4) The animal protocol was approved by the Case Western Reserve University Institutional Animal Care and Use Committee. An inoculum of 5×10^6 cells were injected s.c. and bilaterally into 4- to 6-week-old female nude mice (5 per group) as previously described. The mice were randomized to receive one of the following: FadAc or mFadA (each at 80 μg), BSA (0.01 μmol, i.e., 660 μg), or peptide (0.01 μmol), or bacteria at 1×10^7 cfu, at each inoculation site.

Fn [10] = assay: Immunohistochemical staining of Fn-infected HCT116 xenografts; type: in vivo, Fusobacterium nucleatum; details: wild-type Fn injected into HCT116 xenografts
Procedure: Immunofluorescent staining of cells was performed as previously described. Mouse anti-β-catenin mAb and Alexa Fluor 634-conjugated goat anti-mouse polyclonal antibodies were used. IHC analysis of xenograft tumors were performed as previously described, using rabbit anti-Fn polyclonal antibodies. Pre-immune serum from the same rabbit was used as control.
as §4

HCT116 xenografts [11] = assay: qPCR of HCT116 xenografts; type: in vivo, mice; details: FadAc or wild-type Fn
Procedure: as §4, §1

Molecule | effect of inhibitor on CRT activation (β-catenin translocation, LEF/TCF, Wnt and oncogenes) [1] | effect of inhibitor on E-cadherin phosphorylation [1] | effect of inhibitor on FadA and E-cadherin internalization [1] | effect of inhibitor on FadA binding to the membranes [1] | inhibition of activation of inflammatory genes, mRNA (HCT116 [2]) | inhibition of activation of tumor growth genes (Wnt, oncogenes), mRNA (HCT116 [2]) | inhibition of Fn attachment of HCT116 (Fn [3]) | inhibition of Fn invasion of HCT116 (Fn [4]) | effect of inhibitor on NF kappaB activation [1] | effect on Fn-stimulated expression of NF-kappaB and cytokines IL-6, 8, and 18 (HCT116 [2]; wild type Fn) | inhibition of Fn-stimulated HCT116 growth (HCT116 [5]) | suppression of Fn growth stimulation of CDH1-transfected RKO cells [6] | block of Fn attachment of endothelial cells [7] | block of Fn invasion of endothelial cells [8] | effect of peptide on FadAc-stimulated tumor growth (HCT116 xenografts [9]) | prevention of Fn invasion into tumor tissues (Fn [10]) | inhibition of stimulation of tumor growth genes and inflammatory genes in xenografts (HCT116 xenografts [11]) | concentration of maximum inhibition of Fn attachment of HCT116 (Fn [3]) [µM] | concentration of maximum inhibition of Fn invasion of HCT116 (Fn [4]) [µM]
O=c1c(-c2ccc(O)cc2)coc2cc(O)cc(O)c12 [Genistein] | abolished | prevented | prevented | abolished | inhibited | inhibited |  |  |  |  |  |  |  |  |  |  |  |  | 
O=C1NC(=NS(=O)(=O)c2cccc3ccccc23)S/C1=C\c1ccc(Br)cc1 [Pitstop2] | unaffected | did not affect | inhibited | did not affect | only inhibited the inflammatory genes | not | without affecting attachment | prevented | no NF kappaB activation was observed | abolished |  |  |  |  |  |  |  |  | 
ASANWTIQYND [inhibitory peptide] |  |  |  |  |  |  | minimum required | minimum required |  |  | inhibited | diminished | block | block | No increase was detected | prevented | inhibited |  | 
B1 |  |  |  |  |  |  | inhibited by purified GST-EC5 fusion protein in a dose-dependent manner | inhibited by purified GST-EC5 fusion protein in a dose-dependent manner |  |  | inhibited | diminished |  |  |  |  |  | 0.1 | 0.1
